What all share (assay type): cell-based
For experiment [1], the target named is T1, human TGR5 (Homo sapiens, UniProt Q8TDU6).
T1 construct: expressed in transfected cells; host or cells: CHO cells
T1 sequence (Q8TDU6 1-330): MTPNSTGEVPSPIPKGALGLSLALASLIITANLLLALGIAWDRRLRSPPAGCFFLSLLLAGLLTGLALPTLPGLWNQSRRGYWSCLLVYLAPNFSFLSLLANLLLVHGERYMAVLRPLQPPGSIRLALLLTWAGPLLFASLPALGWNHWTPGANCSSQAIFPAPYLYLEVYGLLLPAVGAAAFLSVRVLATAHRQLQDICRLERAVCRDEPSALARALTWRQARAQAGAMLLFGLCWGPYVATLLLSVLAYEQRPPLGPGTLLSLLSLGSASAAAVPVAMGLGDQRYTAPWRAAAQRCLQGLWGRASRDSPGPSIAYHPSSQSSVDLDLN
Briefly: cAMP production increasing activity in human TGR5 expressing CHO cells. The following applies: read-out: EC50 value (concentration necessary to make the cAMP production amount 50%).

The target in experiment [2] is T1, human TGR5. The experiment is described as above. Conditions: test compound 1 μM, 30 min; 1 μM lithocholic acid = 100%, no addition = 0%; average of 3 groups. The protocol:
As the assay buffer, Hank's balanced salt solution (HBSS, Invitrogen) supplemented with 0.1% bovine serum albumin (BSA, Sigma) and 0.5 mM 3-isobutyl-1-methylxanthine (IBMX, Sigma) was used. A test compound sample (1 μM) diluted with the assay buffer was added to the cells. The cells were incubated at 37° C. for 30 min. and the supernatant was suctioned. The intracellular cAMP amount increased by the stimulation of the test compound was quantitatively determined using a HitHunter™ EFC Cyclic AMP Chemiluminescence Assay Kit (ABI) kit.

In another experiment the test system is guinea pig TGR5. Description: cAMP production increasing activity in guinea pig TGR5 expressing CHO cells. Conditions: test compound 2 μM; 10 μM lithocholic acid = 100%; average of 3 groups. The method, then:
(§1) The guinea pig type TGR5 expressing CHO cells were seeded in one 150 cm^2 flask at 1×10^7 cells, and cultured overnight at 37° C., 5% CO2. After culture, the cells were detached with 0.5 mM EDTA/PBS, washed with PBS, and suspended in Buffer 1 (HBSS+0.1% BSA, 25 mM HEPES pH 7.3, 0.5 mM IBMX) at a density of 1×10^7 cells/ml. The obtained cell suspension (460 μl), anti-cAMP acceptor beads (23 μl) of AlphaScreen cAMP assay kit (Perkin Elmer) and Buffer 1 (667 μl) were mixed and dispensed to a white 96 well plate (Costar) by 10 μl. Then, a test compound diluted with Buffer 1 was added to each well by 10 μl. At this time, one row of the plate was free of the cell suspension but added with anti-cAMP acceptor beads (9 μl) and Buffer 1 (441 μl) alone, and serial dilutions of cAMP were added instead of the test compound and used as the standard. A mixture of the cell suspension and the test compound contained in the plate was allowed to react at room temperature for 30 min. […] The plate was shaken at room temperature for 2.5 hrs and fluorescence intensity was measured by Fusion α (Parkin Elmer), and the cAMP concentration of each well was calculated using the cAMP standard on each plate.

The next experiment deals with T2, rat TGR5 (Rattus norvegicus, UniProt Q80T02).
T2 construct: expressed in transfected cells; host or cells: CHO cells
T2 sequence (Q80T02 1-329): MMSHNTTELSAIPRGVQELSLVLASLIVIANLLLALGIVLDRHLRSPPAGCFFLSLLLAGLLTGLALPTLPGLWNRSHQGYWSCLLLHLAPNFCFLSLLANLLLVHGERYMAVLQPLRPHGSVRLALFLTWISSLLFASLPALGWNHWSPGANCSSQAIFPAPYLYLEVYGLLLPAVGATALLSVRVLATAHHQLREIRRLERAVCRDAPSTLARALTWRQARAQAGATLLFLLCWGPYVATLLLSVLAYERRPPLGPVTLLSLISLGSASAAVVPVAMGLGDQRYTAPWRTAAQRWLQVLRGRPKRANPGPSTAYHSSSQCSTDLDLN
Briefly: cAMP production increasing activity in rat type TGR5 expressing CHO cells. The following applies: 0.5 h, read-out: cAMP producing activity (control %). The protocol:
as §1, with “After” for “The guinea pig type TGR5 expressing CHO cells were seeded in one 150 cm^2 flask at 1×10^7 cells, and cultured overnight at 37° C., 5% CO2. After”

Counter-ions that a name gives are not always drawn.

For `FC(F)(F)c1cc(CCN2CCOc3nccc(-c4ccccc4)c3C2)cc(C(F)(F)F)c1` [Example 45C, 4-{2-[3,5-bis(trifluoromethyl)phenyl]ethyl}-6-phenyl-2,3,4,5-tetrahydropyrido[3,2-f][1,4]oxazepine hydrochloride], the EC50 on human TGR5 [1] was less than 100 nM.
Take `CC(C)(C)CN1C(=O)C(CC(=O)NCc2ccccc2F)OC(c2cccc(Cn3ccnc3)c2)c2cc(Cl)ccc21` (stereo not drawn) [Example 60, 2-[3,5-trans-7-chloro-5-[3-(1H-imidazol-1-ylmethyl)phenyl]-1-neopentyl-2-oxo-1,2,3,5-tetrahydro-4,1-benzoxazepin-3-yl]-N-(2-fluorobenzyl)acetamide]: the EC50 at human TGR5 [1] is less than 100 nM.
Consider `CC(C)(C)CN1C(=O)[C@@H](CC(=O)NCc2ccccc2F)O[C@@H](c2cccc(CNS(C)(=O)=O)c2)c2cc(Cl)ccc21` (relative stereo) [Reference Example 4, 2-[3,5-trans-7-chloro-5-[3-(methanesulfonylaminomethyl)phenyl]-1-neopentyl-2-oxo-1,2,3,5-tetrahydro-4,1-benzoxazepin-3-yl]-N-(2-fluorobenzyl)acetamide], for which, on human TGR5 [2], the “cAMP production increasing activity (control %)” value was determined as 80 control %.
On to `CC(C)(C)CN1C(=O)[C@@H](CC(=O)NCc2ccccc2F)O[C@@H](c2cccc(CO)c2)c2cc(Cl)ccc21` (relative stereo) [Reference Example 9, 2-[3,5-trans-7-chloro-5-[3-(hydroxymethyl)phenyl]-1-neopentyl-2-oxo-1,2,3,5-tetrahydro-4,1-benzoxazepin-3-yl]-N-(2-fluorobenzyl)acetamide], for which the “cAMP production increasing activity (control %)” value on human TGR5 [2] is given as 128 control %.
As for `Cc1cc(C(=O)N2Cc3ccccc3N(CC(C)C)C(=O)C2CC(=O)NCc2ccccc2F)ccn1` (centres unmarked) [Example 23B, N-(2-fluorobenzyl)-2-[1-isobutyl-4-(2-methylisonicotinoyl)-2-oxo-2,3,4,5-tetrahydro-1H-1,4-benzodiazepin-3-yl]acetamide], the EC50 at human TGR5 [1] was less than 100 nM.
Regarding `O=C(c1cc(Cl)cc(Cl)c1)N1CCOc2nccc(-c3ccccc3)c2C1` [Example 32C, 4-(3,5-dichlorobenzoyl)-6-phenyl-2,3,4,5-tetrahydropyrido[3,2-f][1,4]oxazepine], in the experiment on guinea pig TGR5, the “cAMP producing activity (control %)” value was determined as 89 control %.
Consider `COC(=O)NCc1cccc(C2OC(CC(=O)NCc3ccccc3F)C(=O)N(CC(C)C)c3ccc(Cl)cc32)c1` (stereo not drawn) [Example 43, methyl [3-[3,5-trans-7-chloro-3-[2-[(2-fluorobenzyl)amino]-2-oxoethyl]-1-isobutyl-2-oxo-1,2,3,5-tetrahydro-4,1-benzoxazepin-5-yl]benzyl]carbamate], for which, at human TGR5 [1], the EC50 is less than 100 nM. Further, the “cAMP producing activity (control %)” value in the experiment with guinea pig TGR5 turned out to be 82 control %.
Turning to `CC(=O)NCc1cccc(C2OC(CC(=O)NCC3CCCCCC3)C(=O)N(CC(C)(C)C)c3ccc(Cl)cc32)c1` (stereo not drawn) [Example 17, 2-[3,5-trans-5-[3-(acetylaminomethyl)phenyl]-7-chloro-1-neopentyl-2-oxo-1,2,3,5-tetrahydro-4,1-benzoxazepin-3-yl]-N-(cycloheptylmethyl)acetamide], the EC50 at human TGR5 [1] was less than 100 nM. Also, the activation at 2 µM on rat TGR5 turned out to be 107%.
On to `O=S(=O)(c1cccc2ccccc12)N1CCOc2nccc(-c3ccccc3)c2C1` [Example 42C, 4-(1-naphthylsulfonyl)-6-phenyl-2,3,4,5-tetrahydropyrido[3,2-f][1,4]oxazepine], for which the EC50 at human TGR5 [1] was less than 100 nM. In addition, in the experiment with guinea pig TGR5, the “cAMP producing activity (control %)” value is reported as 104 control %.
For the compound `CC(C)(C)CN1C(=O)C(CC(=O)NCc2ccccc2F)N(Cc2ccncc2)Cc2ccccc21` (centres unmarked) [Example 30B, N-(2-fluorobenzyl)-2-[1-neopentyl-2-oxo-4-(pyridin-4-ylmethyl)-2,3,4,5-tetrahydro-1H-1,4-benzodiazepin-3-yl]acetamide], at human TGR5 [1], the EC50 is less than 100 nM. In addition, the activation at 2 µM on rat TGR5 amounted to 108%.
As to `O=S(=O)(c1cc(C(F)(F)F)cc(C(F)(F)F)c1)N1CCCOc2nccc(-c3ccc(F)cc3)c2C1` [Example 60C, 5-{[3,5-bis(trifluoromethyl)phenyl]sulfonyl}-7-(4-fluorophenyl)-3,4,5,6-tetrahydro-2H-pyrido[2,3-b][1,5]oxazocine], the EC50 at human TGR5 [1] was less than 100 nM.
Turning to `CC(C)(C)CN1C(=O)[C@@H](CC(=O)NCc2ccccc2F)O[C@@H](c2cccc(CNC(=O)C(F)(F)F)c2)c2cc(Cl)ccc21` (relative stereo) [Reference Example 5, N-[3-[3,5-trans-7-chloro-3-[2-[(2-fluorobenzyl)amino]-2-oxoethyl]-1-neopentyl-2-oxo-1,2,3,5-tetrahydro-4,1-benzoxazepin-5-yl]benzyl]-2,2,2-trifluoroacetamide], the “cAMP production increasing activity (control %)” value on human TGR5 [2] worked out at 116 control %.
Still for that read-out and setting: the value for `CC(C)(C)CN1C(=O)[C@@H](CC(=O)NCc2ccccc2F)O[C@@H](c2cccc(C3OCCO3)c2)c2cc(Cl)ccc21` (relative stereo) [Reference Example 2, 2-[3,5-trans-7-chloro-5-[3-([1,3]dioxolan-2-yl)phenyl]-1-neopentyl-2-oxo-1,2,3,5-tetrahydro-4,1-benzoxazepin-3-yl]-N-(2-fluorobenzyl)acetamide] was 108 control %.
As to `COC(=O)NCc1cccc(C2OC(CC(=O)NCC3CCCCC3)C(=O)N(CC(C)(C)C)c3ccc(Cl)cc32)c1` (stereo not drawn) [Example 30, methyl [3-[3,5-trans-7-chloro-3-[2-[(cyclohexylmethyl)amino]-2-oxoethyl]-1-neopentyl-2-oxo-1,2,3,5-tetrahydro-4,1-benzoxazepin-5-yl]benzyl]carbamate], at human TGR5 [1], the EC50 was less than 100 nM. Also, on rat TGR5, the activation at 2 µM was found to be 114%. Further, in the experiment with guinea pig TGR5, the “cAMP producing activity (control %)” value came to 86 control %.
`CC(C)(C)CN1C(=O)[C@@H](CC(=O)NCc2ccccc2F)O[C@@H](c2cccc(N)c2)c2cc(Cl)ccc21` (relative stereo) [Reference Example 1, 2-[3,5-trans-5-(3-aminophenyl)-7-chloro-1-neopentyl-2-oxo-1,2,3,5-tetrahydro-4,1-benzoxazepin-3-yl]-N-(2-fluorobenzyl)acetamide]: at human TGR5 [2], the “cAMP production increasing activity (control %)” value amounted to 97 control %.
Consider `Fc1ccc(-c2ccnc3c2CN(Cc2cc(C(F)(F)F)cc(C(F)(F)F)c2)CCCCO3)cc1` [Example 61C, 6-[3,5-bis(trifluoromethyl)benzyl]-8-(4-fluorophenyl)-2,3,4,5,6,7-hexahydropyrido[2,3-b][1,5]oxazonine], for which the EC50 on human TGR5 [1] is less than 100 nM. Besides, on rat TGR5, the activation at 2 µM came out at 101%.

These data come from US7625887B2, “Receptor agonists” (Takeda Pharmaceutical Company Limited, priority 2003, dated 2009).
